We go through two compounds from patent publication US6875886B2, “Modified PSMA ligands and uses related thereto” (Beth Israel Deaconess Medical Center, Inc., priority 2001, dated 2005).

Each structure is given as a SMILES string. Where a SMILES comes first, the peptide text is derived from it.

One test has as its system NAALADase. Particulars: NAALADase with NAAG as substrate; cited from earlier work.
The next test has as its target PSMA (Homo sapiens, UniProt Q04609). The test can be described thus: 3H-NAAG assay of PSMA enzymatic activity. Type of test: biochemical. The text has this:
To determine the effects of several PSMA ligands and modified PSMA ligands (β-AG/78) on PSMA activity, ^3H-NAAG assay (Slusher et al., J. Biol. Chem., 1990, 265: 21297-301) was used to measure the activity of PSMA at the presence or absence of several PSMA ligands.
β-AG/78 (FIG. 5, bottom panel) is a conjugate of β-AG and the near-infrared fluorophore IRDye78. The conjugate can be synthesized using a similar scheme as shown in Example 1, and the product can be purified using either TLC (not shown) or HPLC, as shown in FIG. 6. As a control, IRDye78 was also tested. The results were shown as percentage of remaining PSMA activity as compared to PSMA activity without any additives, over a range of inhibitor concentrations.

PSMA, sequence (Q04609 whole entry): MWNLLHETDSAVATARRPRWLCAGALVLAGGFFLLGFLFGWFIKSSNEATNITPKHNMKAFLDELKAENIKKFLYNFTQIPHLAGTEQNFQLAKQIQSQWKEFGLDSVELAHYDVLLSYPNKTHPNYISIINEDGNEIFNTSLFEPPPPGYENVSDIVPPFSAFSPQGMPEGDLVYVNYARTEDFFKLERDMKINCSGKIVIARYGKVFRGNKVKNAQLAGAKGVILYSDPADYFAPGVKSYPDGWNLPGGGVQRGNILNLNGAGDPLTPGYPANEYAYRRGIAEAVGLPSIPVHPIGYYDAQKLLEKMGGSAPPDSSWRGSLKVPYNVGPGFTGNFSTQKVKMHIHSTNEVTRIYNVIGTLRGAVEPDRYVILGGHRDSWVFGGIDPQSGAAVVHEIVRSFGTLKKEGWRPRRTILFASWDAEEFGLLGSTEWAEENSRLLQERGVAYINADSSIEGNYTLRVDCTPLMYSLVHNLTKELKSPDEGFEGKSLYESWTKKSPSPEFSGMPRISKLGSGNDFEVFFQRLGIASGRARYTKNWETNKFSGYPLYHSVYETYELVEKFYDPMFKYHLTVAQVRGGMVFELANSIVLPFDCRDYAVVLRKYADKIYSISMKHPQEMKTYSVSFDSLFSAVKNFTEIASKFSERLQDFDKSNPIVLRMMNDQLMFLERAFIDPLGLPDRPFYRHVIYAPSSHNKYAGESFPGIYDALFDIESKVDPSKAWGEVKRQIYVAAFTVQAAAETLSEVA

Broadly, the Km is the substrate concentration at which the rate is half of its maximum. Take `CC(=O)N[C@@H](CC(=O)O)C(=O)N[C@@H](CCC(=O)O)C(=O)O` [NAAG, N-acetyl-aspartyl-glutamate] (Ac-Asp-Glu-OH): the Km in the test with NAALADase was 0.54 µM.

With `N[C@@H](CC(=O)N[C@@H](CCC(=O)O)C(=O)O)C(=O)O` [β-AG, β-Asp-Glu], on PSMA (comparison of inhibition curves), the “inhibitory potency relative to comparator” value is reported as “slightly less potent than that of beta-N-acetyl-AG (β-NAAG)”. In addition, the “inhibition of PSMA enzymatic activity” value against PSMA (percentage of remaining PSMA activity over a range of inhibitor concentrations) is “is indeed an inhibitor of PSMA enzymatic activity”.
